Among the data in patent publication US7632952B2, “Benzothiazoles and the use thereof as medicaments” (Aventis Pharma S.A., priority 2004, dated 2009) are IC50 and EC50 values, retold here.

In one test the target is T1, Aurora 2 (Homo sapiens, UniProt O14965).
T1 construct: A complete recombinant Aurora 2 enzyme, the N-terminal end of which was labeled with histidine; His tag (N); made in house; host or cells: E. coli
T1 sequence (O14965 1-403): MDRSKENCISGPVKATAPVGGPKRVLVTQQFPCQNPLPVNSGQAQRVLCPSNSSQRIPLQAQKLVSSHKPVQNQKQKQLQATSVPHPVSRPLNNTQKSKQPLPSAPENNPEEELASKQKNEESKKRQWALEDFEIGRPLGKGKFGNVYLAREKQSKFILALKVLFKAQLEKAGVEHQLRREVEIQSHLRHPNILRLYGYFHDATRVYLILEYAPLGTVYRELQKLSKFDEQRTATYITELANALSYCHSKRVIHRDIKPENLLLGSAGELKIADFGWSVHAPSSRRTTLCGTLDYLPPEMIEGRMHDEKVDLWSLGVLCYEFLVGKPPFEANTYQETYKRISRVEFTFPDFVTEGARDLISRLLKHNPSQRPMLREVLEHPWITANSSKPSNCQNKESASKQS
In words: Aurora 2 kinase radioactivity scintillation test. The format is biochemical. How it is done: The inhibitory effect of the compounds toward the kinase Aurora 2 is determined via a radioactivity scintillation test.
A complete recombinant Aurora 2 enzyme, the N-terminal end of which was labeled with histidine, was expressed in E. coli and purified to a quality close to homogeneity.
The C-terminal fragment (Q1687-H2101) of an NuMA (nuclear protein which is associated with the Mitotic Apparatus) expressed in E. coli, and the N-terminal end of which was labeled with histidine, was purified by chromatography with nickel chelate and used as substrate in the Aurora 2 kinase test.
The kinase activity of Aurora 2 is measured by scintillation on a microplate saturated with nickel chelate (New England Nuclear, SMP107 model). Each well contains 100 μl of the following solution: 0.02 μM of Aurora 2; 0.5 μM of NuMA substrate; 1 μM of ATP supplemented with 0.5 μCi of ATP-[^33P]. The solutions are incubated for 45 minutes at 37° C. The test buffer is then removed and the wells are rinsed twice with 300 μl of kinase buffer. The radioactivity is measured in each well using a Packard Model Top Count NXT machine.
The background noise is measured in duplicate in wells containing the radioactive ATP alone containing buffered kinase treated in the same manner as for the other samples.
The activity of the control is determined by measuring in duplicate the radioactivity in the complete test mixture (ATP, Aurora 2 and NuMA substrate), in the absence of test compound.
The inhibition of the activity of Aurora 2 with a compound of the invention is expressed as a percentage of inhibition of the control activity in the absence of test compound. Staurosporin is added to each plate as inhibition control.

A further test concerns HeLa. In words: HeLa proliferation. In kind it is cell-based. Particulars: Homo sapiens, read-out: HeLa proliferation EC50 (nM) DG.
For the next test, the target named is CDK4/cyclin D1 (Homo sapiens, UniProt P11802). In words: CDK4/cyclin D1 Flashplate test in 96-well format. In kind it is biochemical. An outline of the steps:
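CDK4-HA/cyclin D1-(His)6 complex from coinfected Sf9 cells, 25 nM final, phosphorylating 1.8 μM biotinylated pRb peptide in HEPES pH 7.5 with MgCl2, DTT and [γ-33P]ATP at 30 °C. 33P incorporation captured on streptavidin Flashplates and read by scintillation counting; IC50 from seven-point inhibitor dilutions.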

SMILES strings stand for the structures. Where a name gives a salt, the structure may show the parent alone.

Sequence of CDK4/cyclin D1 (P11802 whole entry): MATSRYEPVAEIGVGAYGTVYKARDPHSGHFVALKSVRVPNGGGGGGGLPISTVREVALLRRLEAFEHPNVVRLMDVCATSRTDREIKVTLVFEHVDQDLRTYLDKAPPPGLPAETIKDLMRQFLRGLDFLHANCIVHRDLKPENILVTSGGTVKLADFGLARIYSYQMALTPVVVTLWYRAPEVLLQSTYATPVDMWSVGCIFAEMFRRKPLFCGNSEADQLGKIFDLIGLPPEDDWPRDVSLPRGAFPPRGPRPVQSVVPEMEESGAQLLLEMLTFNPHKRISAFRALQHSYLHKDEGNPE
Sequence of CDK4/cyclin D1 (P24385 whole entry partner): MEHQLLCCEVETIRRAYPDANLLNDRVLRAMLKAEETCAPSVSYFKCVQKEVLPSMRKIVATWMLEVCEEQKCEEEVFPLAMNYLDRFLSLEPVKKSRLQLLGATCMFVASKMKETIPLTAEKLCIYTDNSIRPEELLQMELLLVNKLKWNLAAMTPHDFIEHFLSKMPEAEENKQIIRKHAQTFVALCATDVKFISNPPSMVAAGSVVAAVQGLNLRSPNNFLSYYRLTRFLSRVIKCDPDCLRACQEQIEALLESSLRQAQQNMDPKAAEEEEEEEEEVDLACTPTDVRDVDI

Consider `O=C(Nc1nc2ccc(OS(=O)(=O)c3ccc(NCCCn4ccnc4)cc3)cc2s1)C1CC1` [Example 9, 4-(3-imidazol-1-ylpropylamino)benzenesulfonic 2-(cyclopropanecarbonylamino)benzothiazol-6-yl ester], for which the figures for the half-inhibitory concentration (IC50) on Aurora 2 and against CDK4/cyclin D1 were 65 nM and 931 nM, respectively. In the test on HeLa, the EC50 was 611 nM.
The matching figures for `CNc1ccc(S(=O)(=O)Oc2ccc3nc(NC(=O)C4CC4)sc3c2)cc1` [Example 10, 4-methylaminobenzenesulfonic 2-(cyclopropane-carbonylamino)benzothiazol-6-yl ester]: 34 nM, 944 nM and 807 nM.
Turning to `CC(C)(O)CNc1ccc(S(=O)(=O)Oc2ccc3nc(NC(=O)C4CC4)sc3c2)cc1` [Example 11, 4-(2-hydroxy-2-methylpropylamino)benzene-sulfonic 2-(cyclopropanecarbonylamino)benzothiazol-6-yl ester], the IC50 is 105 nM at Aurora 2 and 924 nM on CDK4/cyclin D1. Besides, the EC50 in the test with HeLa is 80 nM.
The matching figures for `CC(C)N(CCNc1ccc(S(=O)(=O)Oc2ccc3nc(NC(=O)C4CC4)sc3c2)cc1)C(C)C` [Example 12, 4-(2-diisopropylaminoethylamino)benzenesulfonic 2-(cyclopropanecarbonylamino)benzothiazol-6-yl ester]: 172 nM, 205 nM and 16 nM.
The like results for `O=C(Nc1nc2ccc(OS(=O)(=O)c3cccs3)cc2s1)C1CC1` [Example 33h, Thiophene-2-sulfonic acid 2-(cyclopro-panecarbonylamino)benzothiazol-6-yl ester] were, in that order, 68 nM, 358 nM and 4430 nM.
The matching figures for `CC(C)N(CCNc1ccc(S(=O)(=O)Oc2ccc3nc(NC(=O)C4(N)CCCC4)sc3c2)cc1)C(C)C` [Example 41, 4-(2-diisopropylaminoethylamino)benzenesulfonic acid 2-[(1-aminocyclopentanecarbonyl)amino]benzothiazol-6-yl ester]: 325 nM, > 10000 nM and 8390 nM.
For the compound `CC(=O)Nc1nc2ccc(OS(=O)(=O)c3ccc(NCCN(C(C)C)C(C)C)cc3)cc2s1` [Example 43, 4-(2-Diisopropylaminoethylamino)benzenesulfonic acid 2-acetylaminobenzothiazol-6-yl ester], the IC50 at Aurora 2 was 2010 nM; on CDK4/cyclin D1 it was 119 nM. The EC50 in the test with HeLa came to 36 nM.
The matching figures for `COCC(=O)Nc1nc2ccc(OS(=O)(=O)c3ccc(NCCN(C(C)C)C(C)C)cc3)cc2s1` [Example 44, 4-(2-Diisopropylaminoethylamino)benzenesulfonic acid 2-(2-methoxyacetylamino)benzothiazol-6-yl ester]: 3080 nM, 313 nM and 76 nM.
The matching figures for `CC(C)N(CCNc1ccc(S(=O)(=O)Oc2ccc3nc(NC(=O)C4CCCC4)sc3c2)cc1)C(C)C` [Example 45, 4-(2-Diisopropylaminoethylamino)benzenesulfonic acid 2-(cyclo-pentanecarbonylamino)benzothiazol-6-yl ester]: 2890 nM, 341 nM and 289 nM.
The like results for `CC(C)NCCNc1ccc(S(=O)(=O)Oc2ccc3nc(NC(=O)C4CC4)sc3c2)cc1` [Example 53, 4-(2-isopropylaminoethylamino)benzenesulfonic 2-(cyclopropanecarbonylamino)benzothiazol-6-yl ester hydrochloride] were, in that order, 172 nM, 205 nM and 16 nM.
In the case of `CC(C)C(=O)Nc1nc2ccc(OS(=O)(=O)c3ccc(NCCN(C(C)C)C(C)C)cc3)cc2s1` [Example 55, 4-(2-diisopropylaminoethylamino)benzenesulfonic acid 2-isobutyrylaminobenzothiazol-6-yl ester hydrochloride], the half-maximal inhibitory concentration (IC50) at Aurora 2 stood at 5830 nM; against CDK4/cyclin D1, 221 nM. In addition, the EC50 in the test on HeLa came out at 43 nM.
Consider `CCC(=O)Nc1nc2ccc(OS(=O)(=O)c3ccc(NCCN(C(C)C)C(C)C)cc3)cc2s1` [Example 57, 4-(2-diisopropylaminoethylamino)benzenesulfonic acid 2-propionylaminobenzothiazol-6-yl ester hydrochloride], for which the IC50 on Aurora 2 is 3180 nM; at CDK4/cyclin D1, 125 nM. The EC50 in the test with HeLa came to 79 nM.
The matching figures for `CC(C)N(CCNc1ccc(S(=O)(=O)Oc2ccc3nc(NC(=O)C4CCC4)sc3c2)cc1)C(C)C` [Example 60, 4-(2-diisopropylaminoethylamino)benzenesulfonic acid 2-(cyclobutanecarbonylamino)benzothiazol-6-yl ester hydrochloride]: 2800 nM, 265 nM and 199 nM.
Regarding `CC(C)(O)CNc1ccc(S(=O)(=O)Oc2ccc3nc(NC(=O)CCc4cccnc4)sc3c2)cc1` [Example 63, 4-(2-hydroxy-2-methylpropylamino)benzene-sulfonic acid 2-(3-pyrid-3-ylpropionylamino)benzothiazol-6-yl ester hydro-chloride], the IC50 on Aurora 2 turned out to be 1050 nM; on CDK4/cyclin D1, 1390 nM. Also, the EC50 in the test on HeLa is 8370 nM.
The like results for `CC(=O)Nc1nc2ccc(OS(=O)(=O)c3ccc(NCCNC(C)C)cc3)cc2s1` [Example 65, 4-(2-isopropylaminoethylamino)benzenesulfonic acid 2-acetylaminobenzothiazol-6-yl ester] were, in that order, 826 nM, 170 nM and 122 nM.
As to `O=C(Nc1nc2ccc(OS(=O)(=O)c3ccc(-c4ccccn4)s3)cc2s1)C1CC1` [Example 85, 5-pyridin-2-ylthiophene-2-sulfonic acid 2-(cyclopropanecarbonylamino)benzothiazol-6-yl ester], the IC50 was 6940 nM at Aurora 2 and > 10000 nM on CDK4/cyclin D1. The EC50 in the test on HeLa was > 12500 nM.
The matching figures for `CC(C)(CNc1ccc(S(=O)(=O)Oc2ccc3nc(NC(=O)C4CC4)sc3c2)cc1)OP(=O)(O)O` [Example 89, 4-(2-methyl-2-phosphonooxypropylamino)benzene-sulfonic acid 2-(cyclopropanecarbonylamino)benzothiazol-6-yl ester]: 258 nM, 3320 nM and 2510 nM.

One may read the IC50 as the point on the concentration scale where inhibition reaches its midpoint.
